Measured values from US8846661B2, “Diazahomoadamantane derivatives and methods of use thereof” (AbbVie Inc., priority 2009, dated 2014).
pKi: −log10 of the molar value.

biological target: α7 NNR (UniProt Q05941); conditions: [3H]-DPPB binding
Protocol: [^3H]-DPPB, [^3H]-(S,S)-2,2-dimethyl-5-(6-phenyl-pyridazin-3-yl)-5-aza-2-azonia-bicyclo[2.2.1]heptane iodide, binding to the α7 NNR subtype was determined using membrane enriched fractions from rat brain minus cerebellum or human cortex (ABS Inc., Wilmington, Del.) as described in Anderson, D. J.; et al., J. Pharmacol. Exp. Ther. 2008, 324: 179-187 which is incorporated herein by reference. Briefly, pellets were thawed at 4° C., washed and resuspended with a Polytron at a setting of 7 in 30 volumes of BSS-Tris buffer (120 mM NaCl, 5 mM KCl, 2 mM CaCl2, 2 mM MgCl2, and 50 mM Tris-C1, pH 7.4, 4° C.). Seven log-dilution concentrations of test compounds containing 100-200 μg of protein, and 0.5 nM [^3H]-DPPB (62.8 Ci/mmol; R46V, Abbott Labs) were incubated in a final volume of 500 μL for 75 minutes at 4° C. in duplicate. Non-specific binding was determined in the presence of 10 μM methyllycaconitine. Bound radioactivity was collected on Millipore MultiScreen® harvest plates FB presoaked with 0.3% polyethyleneimine using a Packard cell harvester, washed with 2.5 mL ice-cold buffer, and radioactivity was determined using a Packard TopCount Microplate beta counter. IC50 values were determined by nonlinear regression in Microsoft® Excel or Assay Explorer. K, values were calculated from the IC50s using the Cheng-Prusoff equation, where Ki=IC50/(1+[Ligand]/KD) and are shown in Table 1.

Compared with `O=C(c1cc2ccsc2cn1)N1CC2CC3CC1CN(C3)C2` (stereo not shown) [Example 3, 4-(thieno[2,3-c]pyridin-5-ylcarbonyl)-1,4-diazatricyclo[4.3.1.1^3,8]undecane], “4-[5-(3,4-difluorophenyl)pyridin-3-yl]-1,4-diazatricyclo[4.3.1.1^3s]undecane [Example 99]” is lower in pKi: 7.94 for the first, less than 5.00 for the second. The first binds more tightly here.

First: O=C(c1n[nH]c2ccccc12)N1CC2CC3CC1CN(C3)C2 (stereo not shown) [Example 57, 4-(1H-indazol-3-ylcarbonyl)-1,4-diazatricyclo[4.3.1.1^3,8]undecane]
Second: O=C1NC2CC3CC1CN(C3)C2 (stereo not shown) [Example 1, 1,4-diazatricyclo[4.3.1.1^3,8]undecan-5-one]
The pKi of the first is 1.48 log units higher: 7.63 for the first, 6.15 for the second. The first binds more tightly here.

`Fc1cccc(-c2cnc(N3CC4CC5CC3CN(C5)C4)s2)c1` (stereo not shown) [Example 108, 4-[5-(3-fluorophenyl)-1,3-thiazol-2-yl]-1,4-diazatricyclo[4.3.1.1^3,8]undecane] and `Fc1ccc(-c2cnc(N3CC4CC5CC3CN(C5)C4)s2)cc1` (stereo not shown) [Example 110, 4-[5-(4-fluorophenyl)-1,3-thiazol-2-yl]-1,4-diazatricyclo[4.3.1.1^3,8]undecane] are within 0.2 log units of each other in pKi: 7.42 for the first, 7.27 for the second.

Going from `O=C(c1ccc2sccc2n1)N1CC2CC3CC1CN(C3)C2` (stereo not shown) [Example 4, 4-(thieno[3,2-b]pyridin-5-ylcarbonyl)-1,4-diazatricyclo[4.3.1.1^3,8]undecane] to `c1cc(-c2cncc(N3CC4CC5CC3CN(C5)C4)c2)c2cc[nH]c2c1` (stereo not shown) [Example 104, 4-[5-(1H-indol-4-yl)pyridin-3-yl]-1,4-diazatricyclo[4.3.1.1^3,8]undecane], the pKi rises from 6.34 to 7.58 (1.24 log units). The second binds more tightly here.

Compared with `c1ccc2sc(N3CC4CC5CC3CN(C5)C4)nc2c1` (stereo not shown) [Example 113, 4-(1,3-benzothiazol-2-yl)-1,4-diazatricyclo[4.3.1.1^3,8]undecane], `COc1ccc(-c2cnc(N3CC4CC5CC3CN(C5)C4)s2)cc1` (stereo not shown) [Example 105, 4-[5-(4-methoxyphenyl)-1,3-thiazol-2-yl]-1,4-diazatricyclo[4.3.1.1^3,8]undecane] is higher in pKi: less than 5.00 for the first, 6.87 for the second.

`Cc1ccc(-c2cnc(N3CC4CC5CC3CN(C5)C4)s2)cc1` (stereo not shown) [Example 106, 4-[5-(4-methylphenyl)-1,3-thiazol-2-yl]-1,4-diazatricyclo[4.3.1.1^3,8]undecane] and `Clc1ccc2nc(N3CC4CC5CC3CN(C5)C4)oc2c1` (stereo not shown) [Example 112, 4-(6-chloro-1,3-benzoxazol-2-yl)-1,4-diazatricyclo[4.3.1.1^3,8]undecane] are within 0.2 log units of each other in pKi: 7.58 for the first, 7.45 for the second.

Compared with `Clc1ccc2nc(N3CC4CC5CC3CN(C5)C4)sc2c1` (stereo not shown) [Example 111, 4-(6-chloro-1,3-benzothiazol-2-yl)-1,4-diazatricyclo[4.3.1.1^3,8]undecane], `O=C(c1ccc2[nH]ccc2c1)N1CC2CC3CC1CN(C3)C2` (stereo not shown) [Example 37, 4-(1H-indol-5-ylcarbonyl)-1,4-diazatricyclo[4.3.1.1^3,8]undecane] is lower in pKi: 6.94 for the first, less than 5.00 for the second.

`c1cc2cc(-c3ccc(N4CC5CC6CC4CN(C6)C5)nn3)ccc2s1` (stereo not shown) [Example 8, 4-[6-(1-benzothien-5-yl)pyridazin-3-yl]-1,4-diazatricyclo[4.3.1.1^3,8]undecane] and `O=S1(=O)c2ccccc2-c2ccc(N3CC4CC5CC3CN(C5)C4)cc21` (stereo not shown) [Example 5, 4-(5,5-dioxidodibenzo[b,d]thien-3-yl)-1,4-diazatricyclo[4.3.1.1^3,8]undecane] are within 0.2 log units of each other in pKi: 8.46 for the first, 8.64 for the second.
